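In this assay, cells in 96-well plates receive the compound at five concentrations for 48 hours. Endpoints are linearly interpolated between the surrounding concentrations. TGI denotes the concentration required for complete inhibition of growth.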

Common to all, as to test: NCI tumour cell line growth inhibition, 48 h
Assay [1] concerns CAKI-1 renal.
Assay [2] concerns HCC-2998 colon.
The subject of assay [3] is HT29 colon.
Assay [4] relates to MDA-MB-231 breast.
Assay [5] has as its system MDA-MB-435.
Assay [6] concerns OVCAR-5 ovarian.
In assay [7] the test system is SF-268 CNS.
For assay [8], the system named is SF-539 CNS.
The subject of assay [9] is UO-31 renal.
The test system of assay [10] is HL-60(TB) leukemia.

With `COc1cc(S(=O)(=O)Nc2ccc(-c3csc(/N=C\c4cccs4)n3)cc2)ccc1Cl`, the TGI was greater than 100 µM in [1]; 70.1 µM in [2]; greater than 100 µM in [3]; greater than 100 µM in assay [4]; 96.9 µM in assay [5]; greater than 100 µM in [6]. Further, the TGI in [7], in assay [8] and in assay [9] was greater than 100 µM in each case.
For the compound `O=C1Nc2ccccc2C1S(=O)(=O)c1ccccc1` (configuration not stated), the TGI in assay [1], in assay [2], in [3], in assay [4], in assay [5] and in [6] was greater than 100 µM each time. Moreover, the TGI in [7] and in assay [9] was greater than 100 µM throughout.
As to `FC(F)(F)c1cnc(N/N=C(/c2ccccc2)c2ccccn2)c(Cl)c1`, the TGI is 19.6 µM in assay [1]; 24.8 µM in [2]; 18.8 µM in [3]; 32 µM in assay [4]; greater than 100 µM in assay [5]; 31.5 µM in assay [6]. Further, the TGI in assay [7] turned out to be 21.8 µM; in assay [8], 14.4 µM; in assay [9], 21.7 µM.
`CC1CCN(c2cc(-c3cc4ccccc4o3)oc(=O)c2C#N)CC1`: the TGI in [1], in [2], in assay [10], in [3], in assay [6] and in [7] was greater than 100 µM throughout. Moreover, the TGI in assay [8] and in [9] was greater than 100 µM in each case.
With `CC1(CCCCO)C=CC(S(=O)(=O)c2ccccc2)CC1` (configuration not stated), the TGI in assay [1] is 23.9 µM; in assay [2], 19.6 µM; in assay [3], 5.91 µM; in assay [4], 16.4 µM; in [5], 21.8 µM; in [6], 17.5 µM. Further, the TGI was 12.4 µM in [7], 20.2 µM in assay [8] and 16.3 µM in assay [9].
Turning to `O=C1c2ccccc2-n2c1nc1ccc(Cl)cc1c2=O`, the TGI is greater than 100 µM in [1]; greater than 100 µM in [2]; greater than 100 µM in assay [3]; greater than 100 µM in assay [4]; 31.1 µM in assay [5]; greater than 100 µM in [6]. Further, the TGI in assay [8] and in assay [9] was greater than 100 µM throughout.
In the case of `COC(=O)c1cc2ccccc2c2nc3ccccc3c(Cl)c12`, the TGI in assay [1], in assay [2], in assay [10], in assay [3], in [7] and in assay [8] was greater than 100 µM throughout.
On to `CC1=C2CC(C)(C)CC(=O)C2(C)CCC1=O` (configuration not stated), for which the TGI in assay [1], in assay [2], in assay [10], in assay [3], in assay [4] and in [6] was greater than 100 µM throughout. Besides, the TGI in assay [7], in assay [8] and in assay [9] was greater than 100 µM in each case.
Consider `O=C1CC(=O)NC(=NN2C(=O)/C(=C/c3ccc(Cl)cc3)N=C2c2ccccc2)N1`, for which the TGI is greater than 100 µM in assay [1]; 24.2 µM in [2]; 31.5 µM in assay [3]; 35.6 µM in assay [4]; 29.1 µM in [5]; 30.2 µM in [6]. In addition, the TGI in assay [7] is 34.2 µM; in [8], 32.4 µM; in assay [9] it was 31.7 µM.
`Nc1c(C(=O)c2ccccc2)nnc2ccccc12`: the TGI in [1] was greater than 100 µM; in assay [2] it was 54.4 µM; in assay [3] it was greater than 100 µM; in assay [4], 53.3 µM; in assay [5], 60.3 µM; in assay [6] it was greater than 100 µM. Moreover, the values for the TGI in [7], in [8] and in assay [9] were greater than 100 µM, 87.3 µM and greater than 100 µM, respectively.
On to `CC(=O)Oc1ccc2cc(Oc3ccccc3)c(=O)oc2c1`, for which the TGI in [1], in assay [2], in assay [10], in [3], in assay [4] and in assay [6] was greater than 100 µM throughout. The TGI in assay [7], in assay [8] and in [9] was greater than 100 µM in each case.
Take `CC(=O)O[C@H]1C[C@@H](OC(C)=O)[C@@](C)(O)[C@@H]2[C@@H](OC(C)=O)[C@@]3(O)[C@H](/C=C(/CCl)[C@H]4O[C@H]4[C@@H](OC(C)=O)[C@@]12C)OC(=O)[C@@H]3C`: the TGI in assay [1], in assay [2], in [3], in assay [4], in assay [5] and in [6] was greater than 25 µM in each case. In addition, the TGI in assay [7] and in assay [9] was greater than 25 µM each time.
As for `O=C(/C=C/c1ccc(Cl)cc1)c1ccc(Cl)s1`, the TGI in assay [2] is 47.3 µM; in assay [10], greater than 100 µM; in assay [3], greater than 100 µM; in [4], greater than 100 µM; in assay [6], greater than 100 µM; in [7], greater than 100 µM. The TGI in assay [8] and in assay [9] was greater than 100 µM throughout.
Turning to `CC(C)(CC1(C)NC(=O)NC1=O)OCc1ccccc1` (configuration not stated), the TGI in assay [1], in [2], in [3], in assay [4], in [5] and in [6] was greater than 100 µM each time. For the same compound, the TGI in [7] and in [9] was greater than 100 µM throughout.
Regarding `COc1ccc2nc(-c3ccc(O)cc3)ccc2c1`, the TGI in [2], in assay [10], in assay [3], in assay [6], in assay [8] and in assay [9] was greater than 100 µM in each case.
Take `CSc1nc(C)cc(=O)n1C1OC(COC(C)=O)C(OC(C)=O)C(OC(C)=O)C1OC(C)=O` (configuration not stated): the TGI in assay [2], in assay [10], in assay [3], in assay [6], in assay [7] and in [9] was greater than 100 µM each time.
Consider `O[C@]12c3ccccc3C1CCCCC2N1CCOCC1` (some centres not stated), for which the TGI in assay [10], in assay [3], in assay [7] and in assay [9] was greater than 100 µM each time.
With `CCCCOc1ccc(S(=O)(=O)/N=C(\N)Nc2ccc(Cl)cc2)cc1`, the TGI in [3] is 35.2 µM; in [4], 29.7 µM; in assay [6], 33.2 µM; in assay [7], 29.3 µM; in [8] it was 54.9 µM; in [9] it was 34.8 µM.
As for `COc1cccc2c1[C@H]1OC(=O)NC1CCCCC2` (some centres not stated), the TGI in assay [1], in assay [2], in [10], in assay [3], in [6] and in assay [7] was greater than 100 µM in each case. For the same compound, the TGI in [8] and in assay [9] was greater than 100 µM in each case.
`Cc1cc(OC(=O)Nc2ccc(Cl)cc2)ccc1C(=S)Nc1ccccc1`: the TGI is greater than 100 µM in assay [1]; greater than 100 µM in [2]; 53.7 µM in [10]; greater than 100 µM in assay [3]; greater than 100 µM in assay [5]; greater than 100 µM in assay [6]. The TGI in [7], in assay [8] and in [9] was greater than 100 µM in each case.
With `CON(C)C(=O)C(C)NC(=O)OC(C)(C)C` (configuration not stated), the TGI in assay [2], in assay [10], in assay [3], in assay [5], in [6] and in assay [7] was greater than 100 µM throughout. For the same compound, the TGI in assay [8] and in assay [9] was greater than 100 µM each time.
`Nc1ncnc2c1ncn2CCOC(c1ccccc1)P(=O)(O)O` (configuration not stated): the TGI in assay [1], in assay [2], in assay [10], in [3], in assay [6] and in assay [7] was greater than 100 µM throughout. The TGI in assay [8] and in [9] was greater than 100 µM throughout.
Consider `CC(N)=O.[Cl][Pt][Cl].[NH-]c1ccn(C2OC(CO)C(O)C2O)c(=O)n1` (configuration not stated), for which the TGI in [1], in [3], in [4], in assay [5], in [6] and in assay [7] was greater than 100 µM each time. In addition, the TGI in assay [8] and in [9] was greater than 100 µM each time.
For the compound `O=C(NN1C(=O)C(Cl)C1c1c(O)ccc2ccccc12)c1ccccc1O` (configuration not stated), the TGI in assay [10], in assay [3], in assay [7], in [8] and in [9] was greater than 100 µM in each case.
As to `O=C([O-])C1([n+]2c(-c3ccccc3)cc(-c3ccccc3)cc2-c2ccccc2)CC1`, the TGI in [2] is greater than 100 µM; in assay [10], 68.4 µM; in [3], greater than 100 µM; in assay [5], 50.7 µM; in [6], greater than 100 µM; in [7], greater than 100 µM. For the same compound, the TGI in assay [8] was greater than 100 µM.

These data come from PubChem BioAssay (NCI).
